ChEMBL document CHEMBL1146808, “Structure-activity relationships of adenosine A3 receptor ligands: new potential therapy for the treatment of glaucoma” (Bioorg Med Chem Lett, 2004)
Values joined by “and” are separate entries in the source; they are usually repeats but may differ in a detail not shown here. Identical values can stand only once.

Experiments:
Adenosine receptor A2a = Adenosine receptor A2a (Homo sapiens, UniProt P29274); experiment: biochemical; type: cell-based, HEK293
Adenosine receptor A1 = molecular target: T1, Adenosine receptor A1 (Homo sapiens, UniProt P30542); experiment: biochemical; type: cell-based, CHO
T1 sequence (P30542 whole entry): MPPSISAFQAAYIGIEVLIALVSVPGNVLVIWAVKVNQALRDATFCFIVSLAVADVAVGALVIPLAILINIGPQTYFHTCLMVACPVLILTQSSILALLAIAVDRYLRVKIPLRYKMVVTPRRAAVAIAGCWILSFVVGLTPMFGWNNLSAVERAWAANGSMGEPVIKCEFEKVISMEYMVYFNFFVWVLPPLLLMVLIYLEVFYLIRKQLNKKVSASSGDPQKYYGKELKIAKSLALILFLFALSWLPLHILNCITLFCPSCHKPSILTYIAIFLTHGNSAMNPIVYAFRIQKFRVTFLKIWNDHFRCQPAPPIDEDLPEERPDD

Adenosine receptor A2b = molecular target: T2, Adenosine receptor A2b (Homo sapiens, UniProt P29275); experiment: biochemical; type: cell-based, HEK293
T2 sequence (P29275 whole entry): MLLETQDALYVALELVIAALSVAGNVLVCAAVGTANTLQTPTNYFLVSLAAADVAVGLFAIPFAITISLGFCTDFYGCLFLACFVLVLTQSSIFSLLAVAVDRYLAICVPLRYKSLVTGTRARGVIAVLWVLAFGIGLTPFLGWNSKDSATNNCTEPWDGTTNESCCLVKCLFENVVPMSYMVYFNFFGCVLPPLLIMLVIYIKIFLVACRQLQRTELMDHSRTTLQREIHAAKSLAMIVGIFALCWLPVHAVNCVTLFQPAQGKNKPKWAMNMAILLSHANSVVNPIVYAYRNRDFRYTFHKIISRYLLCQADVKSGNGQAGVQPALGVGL

Monkey = type: functional, Cercopithecidae, Eye

Chain of Adenosine receptor A2a (P29274 whole entry): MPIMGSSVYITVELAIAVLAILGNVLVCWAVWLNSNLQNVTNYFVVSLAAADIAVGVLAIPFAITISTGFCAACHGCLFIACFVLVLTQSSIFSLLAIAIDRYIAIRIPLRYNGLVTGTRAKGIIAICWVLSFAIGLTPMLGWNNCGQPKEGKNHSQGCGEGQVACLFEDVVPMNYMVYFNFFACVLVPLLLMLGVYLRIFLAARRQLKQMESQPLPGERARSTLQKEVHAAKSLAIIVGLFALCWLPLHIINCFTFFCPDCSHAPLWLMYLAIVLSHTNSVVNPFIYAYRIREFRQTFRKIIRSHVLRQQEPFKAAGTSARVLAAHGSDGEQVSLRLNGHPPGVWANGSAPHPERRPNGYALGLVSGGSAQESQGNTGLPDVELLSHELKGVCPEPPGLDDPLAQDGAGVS

SMILES	IC50 (Adenosine receptor A2a) [µM]	IC50 (Adenosine receptor A1) [µM]	IC50 (Adenosine receptor A2b) [µM]	Effect (Monkey)
COCCc1nc2nc[nH]c2c2nc(-c3ccc(-c4ccccc4)cc3)nn12	> 10	> 10	> 10	
CCCCc1nc2cccc(Cl)c2c2nc(-c3ccccc3)nn12	> 10			
CCCCc1nc2n[nH]cc2c2nc(-c3cccc(Cl)c3)nn12	0.76			
CCCCc1nc2nc[nH]c2c2nc(-c3ccc(-c4ccccc4)cc3)nn12	> 10	> 10	> 10	
O=C(O)CCc1nc2nc[nH]c2c2nc(-c3ccc(-c4ccccc4)cc3)nn12	> 10			
CCCCc1nc2n[nH]cc2c2nc(-c3ccccc3Cl)nn12	0.13			
CCCCc1nc2[nH]cnc2c2nc(-c3ccc(C(F)(F)F)cc3)nn12		> 10	> 10	19.6 mmHg and 19.1 mmHg
O=C(O)CCCc1nc2nc[nH]c2c2nc(-c3ccc(Cl)cc3)nn12	> 10	> 10	> 10	
